Source: ChEMBL document CHEMBL3507680, “University of Dundee, Gates Library screen for HepG2 cell viability”

Assay: Human HepG2 cell viability assay in 384 well format
Type: toxicity, cell-based
Set-up: dose 125 nL, time 70.5 hour; concentration not given beside the values
Settings: HepG2 cells, read-out: Inhibition

| Compound | cytotoxicity at 70.5 h [%] |
| --- | --- |
| CCNc1cc2c(nn1)CCN(C(=O)c1ccnc(N(C)C)c1)C2 | 0.651 |
| O=C(C1CC(=O)N(C2CC2)C1)N1CCN(CCn2cccc2)CC1 (stereo unspecified) | -1.53 |
| CC[C@]12CN3C[C@](CC)(CN(C1)C3c1[nH]c(=O)[nH]c(=O)c1C)C2=O (stereo partly specified) | 19.3 |
| CC(Cn1cccn1)NCc1csc2c1CCCC2 (stereo unspecified) | 0.457 |
| CCOc1cccc2c1OCC(C(=O)NS(=O)(=O)c1c(C)noc1C)=C2 | -2.53 |
| CCN(CC)Cc1cn2c(n1)CN(C(=O)Cc1ccsc1)CC2 | -5.15 |
| CNC(=O)CN1CCC(CN(C)Cc2ccccc2N(C)C)CC1 | 1.48 |
| Cc1nc(C(=O)N2CCC(c3nnc(Cn4ccnc4)n3C)CC2)cs1 | -8.64 |
| Cc1ccc(C)c(CC(=O)NC2CCS(=O)(=O)CC2)c1 | -10.2 |
| Cc1c(Cl)cccc1OCC(=O)NC1(C#N)CCSC1 (stereo unspecified) | -10.3 |
| CC(C)=CCCN1CCN(C)C2(CCC(=O)N(C)CC2)C1 (stereo unspecified) | -6.95 |
| Cc1ccc(CN(c2cc(C)nc3nc(C(F)(F)F)nn23)C2CC2)cc1 | 0.825 |
| COc1ccc(OC)c(C2CCN(C(=O)C3CCOCC3)C2)c1 (stereo unspecified) | -6.78 |
| Cn1c(Cn2ccnc2)nnc1C1CCN(C(=O)c2cccnc2)CC1 | -10.4 |
| c1cncc(CN(Cc2ccc3c(c2)OCCO3)CC2CCCO2)c1 (stereo unspecified) | 25.2 |
| Cc1ccsc1C(=O)N1CCN(Cc2cscn2)CC1 | -3.03 |
| Cc1noc(CN(C)C(=O)c2n[nH]c(N)c2-c2ccccc2)n1 | 2.44 |
| COc1ccccc1OC1(C(=O)O)CCN(c2ncnc(C)c2C)CC1 | 17.6 |
| CC1(C)CC1C(=O)NS(=O)(=O)Cc1cc(-c2ccccc2)no1 (stereo unspecified) | -1.85 |
| Cc1cnn(CC(=O)N2CCCN(Cc3cnn(C(C)C)c3)CC2)c1 | -0.435 |
| Cc1cncc(NC(=O)c2ccc(CN3CCCC(C(N)=O)C3)cc2)c1 (stereo unspecified) | -0.673 |

| Compound | cytotoxicity at 70.5 h [%] |
| --- | --- |
| CC(O)CN1CCN(C(=O)c2cccn2Cc2cccnc2)CC1 (stereo unspecified) | -11.4 |
| OCC(CO)N1CCC(c2nnc(Cn3ccnc3)n2C2CC2)CC1 | 12.4 |
| O=C1CC(c2cccnc2)c2c(c(C(=O)O)cn2-c2ccccc2F)N1 (stereo unspecified) | -13.2 |
| Cc1cc(F)ccc1CN1CCCC2(C1)OCCO2 | -3.36 |
| COCCN(Cc1cccnc1)c1nc(C)nc2oc(C)nc12 | -5.28 |
| O=C1CCCN1c1cccc(CNCc2cc(F)ccc2F)c1 | -6.99 |
| CC(NCc1cc(F)ccc1F)c1ccc(OCC(=O)NC2CC2)cc1 (stereo unspecified) | -1.77 |
| O=C(CNC(=O)c1ccc2c(c1)CCC2)NCCNc1ncccn1 | -14.4 |
| CC(C)(C)c1ncc2c(n1)CN(C(=O)c1ccc(-c3nc[nH]n3)cc1)C2 | -1.51 |
| COc1ccc(CN2CCCC(N3CCCC3)C2)cc1Cn1cncn1 (stereo unspecified) | 10.6 |
| CCCN1CC2(CCN(C)CC2)CC1C(=O)NCCn1nc(C)nc1C (stereo unspecified) | 6.07 |
| Cc1cccc(C(=O)N(CCCO)S(=O)(=O)c2cccs2)c1 | -0.969 |
| CCOc1ccc(CN2CCC(c3[nH]ncc3C)C2)cc1CO (stereo unspecified) | -7.99 |
| Cc1cncc(C(=O)N2CCc3ncc(Cn4cccn4)n3CC2)c1 | 22.9 |
| COc1cccc(-c2n[nH]c3c2CN(C(=O)c2oc(C)cc2C)CC3)c1 | -0.91 |
| CCCc1nc(C(=O)N2CCN(C(=O)OC)CC2)cs1 | -4.71 |
| Cc1nc(C2CCN(C(=O)c3ccnn3C)CC2)c2sccn12 | -3.95 |
| CC(=O)c1cn(CC(=O)N2CCCC(O)(CO)C2)c2ccccc12 (stereo unspecified) | 28 |
| Cc1cccc(CN2CC[C@H]3[C@H]2CCN3C(=O)c2cnn(C)c2)n1 | 2.83 |
| CC(=O)N1CC[C@@H]2O[C@@H](COCC(=O)N3CCCC3)CC[C@@H]21 | 23.9 |
| CN1CCN(c2cc(CCNC(=O)C3CCC3)nc(C3CC3)n2)CC1 | -6.65 |

| Compound | cytotoxicity at 70.5 h [%] |
| --- | --- |
| Cc1ccc(N2C(=O)N[C@@H]3CCN(C(=O)C4CCCC4)[C@@H]3C2=O)cc1 | -13.1 |
| Cn1nc(C2CC2)c2c1NC(=O)CC2c1ccc(CN2CCCCC2)s1 (stereo unspecified) | -3.05 |
| Cc1cnccc1CN(C)C(=O)c1cccc(CCC(C)(C)O)c1 | -1.91 |
| O=C(NCc1ccccc1Cn1cncn1)C1CC1 | -11.8 |
| CC1COCCN1C(=O)c1cccc(OCc2cscn2)c1 (stereo unspecified) | -8.23 |
| Cc1nc(CC(=O)N2CCC(c3ccn4nccc4n3)CC2)cs1 | 1.76 |
| CC(=O)N1CCCN(C(=O)NCCCn2cncn2)CC1 | -0.358 |
| O=C(Cc1cccnc1)NC1CCCN(CCCc2ccccc2)C1 (stereo unspecified) | -8.8 |
| Cc1nc2c(N(CCC(N)=O)CCc3ccccc3)ncnc2o1 | 22 |
| CC(NC(=O)CSCC(=O)Nc1ccccc1)c1ccccc1 (stereo unspecified) | -1.19 |
| CC(C)C(O)CNC(=O)Nc1cccc(-c2nccs2)c1 (stereo unspecified) | -3.11 |
| O=C(NCCCN1CCN(c2ncccn2)CC1)NCC1CCOC1 (stereo unspecified) | 3.56 |
| CCn1ccnc1CN1CCN(c2nc(C)cc(OC)n2)CC1 | -9.98 |
| CCc1nc(CC(=O)NCC(Cc2ccc(F)cc2)C(N)=O)cs1 (stereo unspecified) | 29.6 |
| Cc1ccc(CNC(=O)NCc2csc(C)n2)cn1 | -21.2 |
| Cn1nccc1C(=O)N1CCC2(CC1)COC(COc1ccccn1)C2 (stereo unspecified) | -11.2 |
| CC(C)c1ncc2c(n1)CN(c1ncnc3[nH]ccc13)CC2 | 17.1 |
| CC(C)c1ncc(Cl)c(C(=O)N2CCN3CCCCC3C2)n1 (stereo unspecified) | 36.2 |
| O=C(NC1CCCC1)O[C@H]1COCCN(c2nc3ccccc3s2)C1 | 3.92 |
| Cc1ccc(-c2nc(CC(=O)NCC3CCCN(C(C)C)C3)cs2)o1 (stereo unspecified) | 11.1 |
| COCCN1CCN(Cc2ccc(C(C)=O)cc2)[C@H]2CS(=O)(=O)C[C@H]21 | -5.05 |

| Compound | cytotoxicity at 70.5 h [%] |
| --- | --- |
| Cc1csc(NC(=O)C2(C)CN(C)CCO2)n1 (stereo unspecified) | 1.56 |
| N#CCCN(CC1CCOC1)Cn1ccc(-c2ccccc2)n1 (stereo unspecified) | -0.616 |
| CCOC1CC2(CCN(CCO)CC2)c2ccc(C)cc21 (stereo unspecified) | 1.71 |
| CNc1cccc(C2CCCN(C(=O)c3cnccn3)C2)n1 (stereo unspecified) | -0.4 |
| CN1[C@H]2CC[C@@H]1CN(C(=O)c1nnc3n1CCCC3)CC2 | 12.6 |
| CC(C)(C)CC(=O)NCC(=O)Nc1ccn(CCCn2ccnc2)n1 | -2.26 |
| CN(Cc1cc2n(n1)CCCNC2)Cc1cc(-c2ccncc2)no1 | -5.61 |
| CN1CCCn2c(nc(CNS(=O)(=O)C3CC3)cc2=O)C1 | -1.98 |
| CNC(=O)c1[nH]nc2ccc(I)cc12 | -3.31 |
| COC(=O)[C@@H]1Cc2ncn(C)c2CN1S(=O)(=O)c1ccc(C)cc1 | -8.32 |
| CCN1CCC(CC(=O)N2CCN(c3ccccc3OC)CC2C)CC1 (stereo unspecified) | 23.7 |
| CSCC(=O)N1CCN(CC(O)C(C)(C)C)CC1 (stereo unspecified) | -10.6 |
| CNC(=O)CN1CCC(c2cc(OC)cc(OC)c2)C1 (stereo unspecified) | -7.18 |
| c1cncc(CN2CCc3c(CNc4nccs4)n[nH]c3C2)c1 | -25 |
| O=C(CC1CC2(CCNCC2)c2ccccc21)NCC1CC1 (stereo unspecified) | 11.3 |
| O=C(Nc1cc(Cl)ccc1N1CCCCC1)c1ccccn1 | 7.77 |
| CC(C)(C(=O)NCCC(=O)O)c1cccc(Br)c1 | -12.3 |
| Cc1cn2c(n1)CCC(NC(=O)c1ccc(S(C)(=O)=O)o1)C2 (stereo unspecified) | 6.89 |
